From the supplement of paper PMC10307832

What was measured:
Assay in all cases: relative viability (nuclei count vs DMSO), 5 days (fraction); higher = more cells survive
[1] = tested on: CAL-12T
How it was run: (§1)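 Lung cancer cell lines, seeded in 1536-well plates, were treated the following day by pin tool with a single drug or with five library-drug doses (not always all listed) in √10 steps on top of a fixed anchor-drug dose. Cells were fixed and nuclei stained in one step after 5 days, and nuclei were counted. Relative viability is the nuclei count for treated wells divided by that for vehicle wells, reported as medians of duplicate plates.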

[2] = tested on: COR-L 105
How it was run: as §1

[3] = tested on: NCI-H1915
How it was run: as §1

[4] = tested on: HCC-827
How it was run: as §1

[5] = tested on: HCC-366
How it was run: as §1

[6] = tested on: NCI-H1755
How it was run: as §1

[7] = tested on: NCI-H1437
How it was run: as §1

[8] = tested on: NCI-H460
How it was run: as §1

[9] = tested on: HOP-62
How it was run: as §1

[10] = tested on: NCI-H23
How it was run: as §1

[11] = tested on: SK-LU-1
How it was run: as §1

[12] = tested on: NCI-H2009
How it was run: as §1

[13] = tested on: NCI-H1355
How it was run: as §1

[14] = tested on: A-427
How it was run: as §1

[15] = tested on: NCI-H2228
How it was run: as §1

[16] = tested on: NCI-H1792
How it was run: as §1

[17] = tested on: NCI-H727
How it was run: as §1

[18] = tested on: EMC-BAC-2
How it was run: as §1

[19] = tested on: HARA
How it was run: as §1

[20] = tested on: NCI-H1975
How it was run: as §1

[21] = tested on: NCI-H1395
How it was run: as §1

[22] = tested on: SW 1573
How it was run: as §1

COc1cc(N2CCC(C(N)=O)CC2)ccc1Nc1nc(N)c(Cl)c(Nc2ccccc2S(=O)(=O)C(C)C)n1 [HG-5-88-01] + CS(=O)(=O)CCNCc1ccc(-c2ccc3ncnc(Nc4ccc(OCc5cccc(F)c5)c(Cl)c4)c3c2)o1 [Lapatinib] (partner 2 µM)
relative viability ([1]; first compound 0.04 µM): 0.618 | relative viability ([1]; first compound 0.1265 µM): 0.698 | relative viability ([1]; first compound 0.4 µM): 0.641 | relative viability ([1]; first compound 1.265 µM): 0.32 | relative viability ([1]; first compound 4 µM): 0.359 | relative viability ([2]; first compound 0.04 µM): 0.346 | relative viability ([2]; first compound 0.1265 µM): 0.375 | relative viability ([2]; first compound 0.4 µM): 0.329 | relative viability ([2]; first compound 1.265 µM): 0.336 | relative viability ([2]; first compound 4 µM): 0.334 | relative viability ([3]; first compound 0.04 µM): 0.958 | relative viability ([3]; first compound 0.1265 µM): 1 | relative viability ([3]; first compound 0.4 µM): 0.977 | relative viability ([3]; first compound 1.265 µM): 1 | relative viability ([3]; first compound 4 µM): 0.698 | relative viability ([4]; first compound 0.04 µM): 0.202 | relative viability ([4]; first compound 0.1265 µM): 0.211 | relative viability ([4]; first compound 0.4 µM): 0.17 | relative viability ([4]; first compound 1.265 µM): 0.197 | relative viability ([4]; first compound 4 µM): 0.17 | relative viability ([5]; first compound 0.04 µM): 1.04 | relative viability ([5]; first compound 0.1265 µM): 1.04 | relative viability ([5]; first compound 0.4 µM): 0.863 | relative viability ([5]; first compound 1.265 µM): 1.08 | relative viability ([5]; first compound 4 µM): 1.29 | relative viability ([6]; first compound 0.1265 µM): 1.04 | relative viability ([6]; first compound 0.4 µM): 0.986 | relative viability ([6]; first compound 1.265 µM): 1.02 | relative viability ([6]; first compound 4 µM): 1.15 | relative viability ([7]; first compound 0.04 µM): 0.8 | relative viability ([7]; first compound 0.1265 µM): 0.945 | relative viability ([7]; first compound 0.4 µM): 0.756 | relative viability ([7]; first compound 1.265 µM): 0.761 | relative viability ([7]; first compound 4 µM): 0.454 | relative viability ([8]; first compound 0.04 µM): 0.963 | relative viability ([8]; first compound 0.1265 µM): 0.981 | relative viability ([8]; first compound 0.4 µM): 0.871 | relative viability ([8]; first compound 1.265 µM): 0.996 | relative viability ([8]; first compound 4 µM): 0.302 | relative viability ([9]; first compound 0.04 µM): 1.1 | relative viability ([9]; first compound 0.1265 µM): 1.1 | relative viability ([9]; first compound 0.4 µM): 1.05 | relative viability ([9]; first compound 1.265 µM): 1.2 | relative viability ([9]; first compound 4 µM): 0.893 | relative viability ([10]; first compound 0.04 µM): 1.05 | relative viability ([10]; first compound 0.1265 µM): 1.23 | relative viability ([10]; first compound 0.4 µM): 0.874 | relative viability ([10]; first compound 1.265 µM): 1.05 | relative viability ([10]; first compound 4 µM): 0.393 | relative viability ([11]; first compound 0.04 µM): 0.947 | relative viability ([11]; first compound 0.1265 µM): 0.855 | relative viability ([11]; first compound 0.4 µM): 0.787 | relative viability ([11]; first compound 1.265 µM): 0.611 | relative viability ([11]; first compound 4 µM): 0.737 | relative viability ([12]; first compound 0.04 µM): 0.943 | relative viability ([12]; first compound 0.1265 µM): 1.01 | relative viability ([12]; first compound 0.4 µM): 0.843 | relative viability ([12]; first compound 1.265 µM): 0.939 | relative viability ([12]; first compound 4 µM): 0.433 | relative viability ([13]; first compound 0.04 µM): 1.08 | relative viability ([13]; first compound 0.1265 µM): 1.04 | relative viability ([13]; first compound 0.4 µM): 0.832 | relative viability ([13]; first compound 1.265 µM): 0.917 | relative viability ([13]; first compound 4 µM): 0.623 | relative viability ([14]; first compound 0.04 µM): 0.976 | relative viability ([14]; first compound 0.1265 µM): 0.984 | relative viability ([14]; first compound 0.4 µM): 0.978 | relative viability ([14]; first compound 1.265 µM): 1.04 | relative viability ([14]; first compound 4 µM): 0.589 | relative viability ([15]; first compound 0.04 µM): 0.322 | relative viability ([15]; first compound 0.1265 µM): 0.264 | relative viability ([15]; first compound 0.4 µM): 0.394 | relative viability ([15]; first compound 1.265 µM): 0.409 | relative viability ([15]; first compound 4 µM): 0.356 | relative viability ([16]; first compound 0.04 µM): 0.792 | relative viability ([16]; first compound 0.1265 µM): 0.892 | relative viability ([16]; first compound 0.4 µM): 0.864 | relative viability ([16]; first compound 1.265 µM): 0.879 | relative viability ([16]; first compound 4 µM): 0.888 | relative viability ([17]; first compound 0.04 µM): 0.834 | relative viability ([17]; first compound 0.1265 µM): 0.93 | relative viability ([17]; first compound 0.4 µM): 0.669 | relative viability ([17]; first compound 1.265 µM): 0.583 | relative viability ([17]; first compound 4 µM): 0.39 | relative viability ([18]; first compound 0.04 µM): 0.928 | relative viability ([18]; first compound 0.1265 µM): 0.93 | relative viability ([18]; first compound 0.4 µM): 0.802 | relative viability ([18]; first compound 1.265 µM): 0.906 | relative viability ([18]; first compound 4 µM): 0.684 | relative viability ([19]; first compound 0.04 µM): 0.754 | relative viability ([19]; first compound 0.1265 µM): 0.528 | relative viability ([19]; first compound 0.4 µM): 0.671 | relative viability ([19]; first compound 1.265 µM): 0.71 | relative viability ([19]; first compound 4 µM): 0.31 | relative viability ([20]; first compound 0.04 µM): 0.896 | relative viability ([20]; first compound 0.1265 µM): 0.907 | relative viability ([20]; first compound 0.4 µM): 0.723 | relative viability ([20]; first compound 1.265 µM): 0.736 | relative viability ([20]; first compound 4 µM): 0.447 | relative viability ([21]; first compound 0.04 µM): 0.933 | relative viability ([21]; first compound 0.1265 µM): 1 | relative viability ([21]; first compound 0.4 µM): 1.12 | relative viability ([21]; first compound 1.265 µM): 1.05 | relative viability ([21]; first compound 4 µM): 0.83 | relative viability ([22]; first compound 0.04 µM): 1.12 | relative viability ([22]; first compound 0.1265 µM): 0.86 | relative viability ([22]; first compound 0.4 µM): 0.989 | relative viability ([22]; first compound 1.265 µM): 1.06 | relative viability ([22]; first compound 4 µM): 1.04
